The values that follow are results of earlier work, collected in patent publication US8012958B2, “Methods for treating anxiety related disorders” (Hythlam, Inc., priority 2005, dated 2011).

SMILES strings stand for the structures. Read-outs that look alike come from different tables or passages of the source.

Assay in series [1]: not given
This is another data set of the same source.

For series [2] the following is noted: overdose.
The conditions of series [3]: IM 2 to 3 mg (0.02 to 0.05 mg/kg); patients 60 years or older without concomitant narcotics.
The target in series [4] is T1, monoamine oxidase A (MAO-A) (Homo sapiens, UniProt P21397).
T1 sequence (P21397 1-527): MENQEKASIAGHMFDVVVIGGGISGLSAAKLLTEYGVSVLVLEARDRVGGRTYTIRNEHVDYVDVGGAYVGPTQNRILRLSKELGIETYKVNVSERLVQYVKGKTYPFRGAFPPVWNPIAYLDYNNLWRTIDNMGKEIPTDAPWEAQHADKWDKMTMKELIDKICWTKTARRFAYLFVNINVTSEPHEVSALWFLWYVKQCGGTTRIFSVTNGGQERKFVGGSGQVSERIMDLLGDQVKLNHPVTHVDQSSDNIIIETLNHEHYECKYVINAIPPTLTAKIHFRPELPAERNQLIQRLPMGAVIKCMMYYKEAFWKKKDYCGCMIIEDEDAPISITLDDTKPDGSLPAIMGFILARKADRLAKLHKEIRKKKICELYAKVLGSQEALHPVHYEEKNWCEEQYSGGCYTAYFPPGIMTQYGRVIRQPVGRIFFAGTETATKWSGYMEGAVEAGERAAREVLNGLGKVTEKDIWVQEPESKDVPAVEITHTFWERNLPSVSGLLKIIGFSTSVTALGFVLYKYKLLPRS
Conditions: single 300 mg dose.

In series [5] the target is T2, monoamine oxidase B (MAO-B) (Homo sapiens, UniProt P27338).
T2 sequence (P27338 1-520): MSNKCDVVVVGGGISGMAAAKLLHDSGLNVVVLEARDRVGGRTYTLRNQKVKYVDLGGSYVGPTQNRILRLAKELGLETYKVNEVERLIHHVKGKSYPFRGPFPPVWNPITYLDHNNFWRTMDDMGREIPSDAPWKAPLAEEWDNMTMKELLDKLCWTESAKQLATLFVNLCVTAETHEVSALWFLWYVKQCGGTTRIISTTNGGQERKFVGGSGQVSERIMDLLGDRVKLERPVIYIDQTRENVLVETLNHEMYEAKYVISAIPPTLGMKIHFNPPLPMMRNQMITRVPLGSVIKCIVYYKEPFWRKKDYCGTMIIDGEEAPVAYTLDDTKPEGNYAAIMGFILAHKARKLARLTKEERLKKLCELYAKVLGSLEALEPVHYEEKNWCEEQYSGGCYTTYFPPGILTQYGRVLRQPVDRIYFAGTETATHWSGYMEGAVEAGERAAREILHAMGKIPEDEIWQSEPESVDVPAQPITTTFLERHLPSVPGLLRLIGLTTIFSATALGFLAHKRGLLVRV
As to conditions: single 300 mg dose.

In series [6] the test system is GABAA receptor α4 subunit mRNA. As to conditions: for amount of α4 subunit mRNA after withdrawal of the drug: withdrawal after long-term exposure.
The subject of series [7] is GABAA receptors that contain α4 or α6 subunits.
For another series, the system named is GABAA receptors. As to conditions: 3 μM flumazenil; ethanol withdrawn cells.

Consider `CCC1(c2ccccc2)C(=O)NC(=O)NC1=O.CNC(C)CC1CCCCC1` [BARBEXACLONE], for which the “dose equivalent to 60 mg of phenobarbital” value (in vivo) is 100 mg of barbexaclone is equivalent to 60 mg of phenobarbital.

As for `CCCCC1(CC)C(=O)NC(=O)NC1=O` [BUTOBARBITAL], the “dose equivalent to 10 mg of Diazepam” value (butobarbital) was 50 mg of Butobarbital is equivalent to 10 mg of Diazepam; Acc. to.

As to `COc1ccc2c3c1O[C@H]1[C@@H](O)C=C[C@H]4[C@@H](C2)N(C)CC[C@@]341` [CODEINE], the “dose about equal to 30 mg (oral) of morphine” value (oral) is listed as 200 mg (oral) of codeine is about equal to 30 mg (oral) of morphine.

`C[C@]12C=CC(=O)N[C@@H]1CC[C@@H]1[C@@H]2CC[C@]2(C)[C@@H](C(=O)Nc3cc(C(F)(F)F)ccc3C(F)(F)F)CC[C@@H]12` [DUTASTERIDE, (5α,17β)-N-{2,5 bis(trifluoromethyl)phenyl}-3-oxo-4-azaandrost-1-ene-17-carboxamide]: the “adverse effects compared with therapeutic dose of 0.5 mg” value in series [1] (clinical study, 5 mg daily for 6 months) is “subjects for 6 months with no additional adverse effects to those”.

As for `CCCC(C)(COC(N)=O)COC(N)=O` [MEPROBROMATE], the “ingested amount with which survival has been reported (as much as)” value in series [2] is on record as “much as 40 g”.

With `Cc1ncc2n1-c1ccc(Cl)cc1C(c1ccccc1F)=NC2` [MIDAZOLAM], the “sedation during the preoperative period” value in series [3] was “(0.02 to 0.05 mg/kg) of VERSED produced adequate sedation”.

Turning to `O=C(NCCN1CCOCC1)c1ccc(Cl)cc1` [Moclobemide], in series [4], the “inhibition of monoamine oxidase A (MAO-A)” value is “A single 300 mg dose of moclobemide inhibits 80% of monoamine”. For the same molecule, in [5], the “inhibition of monoamine oxidase B (MAO-B)” value was “oxidase A (MAO-A) and 30% of monoamine oxidase B (MAO-B),”.

As to `CC1CN2CC(=O)Nc3ccc(Cl)cc3C2(c2ccccc2)O1` (stereo not shown) [OXAZOLAM], the “dose equivalent to 10 mg of Diazepam” value (oxazolam) is on record as 20 mg is equivalent to 10 mg of Diazepam.

As for `CCN(C(C)=O)c1cccc(-c2ccnc3c(C#N)cnn23)c1` [ZALPELON], in series [6], the “amount of α4 subunit mRNA after withdrawal of the drug” value (“amount of α4 subunit mRNA” for short) is reported as “marked increase”.

With `CN1C(=O)CN=C(c2ccccc2)c2cc(Cl)ccc21` [diazepam], the “effect on the ethanol withdrawal-induced increase in abundance of α4 subunit mRNA” value in series [6] (exposure at the time of ethanol withdrawal) is on record as “antagonizes the withdrawal-induced increase”. Further, the “amount of α4 subunit mRNA” value in [6] was “marked increase”. The “affinity for or efficacy at GABAA receptors that contain α4 or α6 subunits” value in series [7] is reported as “no affinity for or efficacy”.

Regarding `CCOC(=O)c1ncn2c1CN(C)C(=O)c1cc(F)ccc1-2` [flumazenil, ethyl 8-fluoro-5,6-dihydro-5-methyl-6-oxo-4H-imidazo-[1,5-a][1,4]benzodiazepine-3-carboxylate], in the series on GABAA receptors, the “modulation of the GABA evoked Cl- current” value is “potentiates the GABA evoked Cl— current”. Besides, the “adverse effect on the nervous system” value in series [1] (human, in vivo) was “causing increased agitation and anxiety”.

With `Cc1ccc(-c2nc3ccc(C)cn3c2CC(=O)N(C)C)cc1` [zolpidem], in series [6], the “amount of α4 subunit mRNA” value is on record as “marked increase”.
